The record followed here is patent US10729671B2, “Zinc complexes of hydrazones and (thio)semicarbazones and their use for the treatment of cancer” (RUTGERS, THE STATE UNIVERSITY OF NEW JERSEY, priority 2015, dated 2020).

In assay [1] the test system is TOV112D. The experiment in a line: Cell-based TOV112D activity (cell growth inhibition assay). The arrangement: species or system human.
Assay [2] deals with HEK293 cells. As to the kind of experiment: Intracellular [Zn2+]free imaging with FluoZin-3-AM in HEK293 cells. The class given is cell-based. The method, then: (§1) To minimize the potential for Zn^2+ contamination and contributions from poorly defined elements in complete media (e.g. FBS), cells were treated and imaged in Ca^2+ and Mg^2+-free Earle's Balanced Salt Solution supplemented with 10 mM HEPES pH 7.4 (EBSS/H (−)Ca/Mg). Excess ZnCl2 with the Zn^2+ ionophore pyrithione (PYR) was used as a positive control. Excess membrane-permeable Zn^2+ chelator N,N,N′,N′-tetrakis(2-pyridylmethyl)ethane-1,2-diamine (TPEN) was used as a negative control.
To normalize for differential dye loading, cells were then sequentially treated with excess PYR/ZnCl2, imaged, treated with TPEN, and imaged again. PYR/ZnCl2 and TPEN served to saturate and apoize the intracellular FZ3, respectively.
(§2) [formula] where Ji is the initial flux, ΔF/Δt is the slope of the fit line, Fmax is RZ-3 fluorescence in the presence of saturating Zn^2+ and 1% TritonX-100, Fmin is RZ-3 fluorescence in the presence of excess EDTA and 1% TritonX-100, [RZ3] is the concentration of encapsulated RZ-3, and SA/Vol is the surface area to volume ratio calculated assuming hollow spheres of the mean diameter determined by DLS. Intracellular [Zn^2+]free Imaging TOV112D or HEK293 cells (40,000 cells/well) were plated on either 8-well BD Falcon chambered culture slides (Corning Life Sciences) or 8-chambered #1.5 Nunc Lab-Tek II chambered coverglasses (Thermo Scientific) treated with poly-L-lysine. After 48 h, cells were washed 2×5 m in serum-free media and incubated with 1 μM FZ3-AM for 40 m at 37° C. Cells were then washed 2×5 m in either EBSS/H (−)Ca/Mg or phenol-red free DMEM+10% FBS containing the indicated treatments for 20 m before imaging. For nuclear colocalization, 1 μg/mL Hoechst 33342 was also included. Cells were imaged using a Zeiss LSM510 META NLO confocal microscope equipped with 37° C. environmental control chamber. FZ3 and Hoechst 33342 were excited at 488 nm (argon laser) and 790 nm (Chameleon Ti:sapphire laser), respectively. To determine the kinetics of fluorescence change, each background-subtracted image in the time-lapse series was integrated in ImageJ and normalized to the integrated fluorescence of the first frame after treatment. For quantification of intracellular [Zn^2+]free, each cell was analyzed in the treated, 50 μM PYR/ZnCl2 (1:1), and 100 μM TPEN images by taking the mean fluorescence of an ROI inside the cell subtracted by an ROI immediately outside the cell measured in ImageJ. The [Zn^2+]free for each cell was then calculated by Eqn 2:
[formula] […] To minimize the effects of outliers the lowest and highest 5% of cells in each series were rejected, and the remaining values averaged to give the value from that experiment. The number of cells analyzed in each trial ranged from 54-163. […]

Assay [3] can be described thus: Liposome import assay (RZ-3 fluorescence). As to conditions: for Zn2+ transport into liposomes: external [Zn2+]free 10 μM. The method, then:
DOPC-liposomes were prepared by film rehydration and extrusion followed by gel filtration and diluted to an OD600=0.06 in buffer. The size distribution of the liposomes was determined by dynamic light scattering (DLS) using a Malvern Zetasizer Nano ZS. Fluorescence measurements were taken on a Horiba Fluoromax-4 spectrofluorimeter in a 5×5 mm quartz cuvette with λex/λem=550/572 nm for RZ-3 and 490/515 nm for calcein. Initial Zn^2+ import/export was quantified by fitting the first 10-30 s of data after each treatment to a line and converted to units of flux using the following Eqn 1:
as §2, with “For nuclear colocalization, 1 μg/mL Hoechst 33342 was also included. Cells were imaged using a Zeiss LSM510 META NLO confocal microscope equipped with 37° C. environmental control chamber. FZ3 and Hoechst 33342 were excited at 488 nm (argon laser) and 790 nm (Chameleon Ti:sapphire laser), respectively.” left out, “2: […]” for “2:”

Assay [4] is described as follows: Zn2+ binding affinity. The method, then: It can function as an ionophore in conditions of the liposome experiments where external [Zn^2+]free was 10 μM. However, in complete media containing 10% fetal bovine serum (FBS), Zn^2+-binding proteins from the serum (e.g. albumin) necessarily compete for Zn^2+ with any putative MC, making the effective [Zn^2+]free much lower than [Zn^2+]total.
FZ3-AM, RZ-3 (K^+ salt), and cell culture media were purchased from Life Technologies. DOPC was purchased from Avanti Polar Lipids. ZMC1 and A6 were similarly obtained. […] HEK293 and TOV112D cells were purchased from ATCC and maintained in DMEM+GlutaMAX with 10% FBS and 1 mg/mL penicillin-streptomycin under a 5% CO2 atmosphere at 37° C. All non-cell based experiments were conducted in 50 mM Tris pH 7.2, 0.1 M NaCl at 25° C.

The subject of assay [5] is TOV112D cells. As to the kind of experiment: Intracellular [Zn2+]free imaging with FluoZin-3-AM in TOV112D cells. In kind it is cell-based. Particulars: ZMC1 alone (no ZnCl2), EBSS/H (−)Ca/Mg. The protocol:
as §1
To normalize for differential dye loading, cells were then sequentially treated with excess PYR/ZnCl2, imaged, treated with TPEN, and imaged again. […]
[formula] where Ji is the initial flux, ΔF/Δt is the slope of the fit line, Fmax is RZ-3 fluorescence in the presence of saturating Zn^2+ and 1% TritonX-100, Fmin is RZ-3 fluorescence in the presence of excess EDTA and 1% TritonX-100, [RZ3] is the concentration of encapsulated RZ-3, and SA/Vol is the surface area to volume ratio calculated assuming hollow spheres of the mean diameter determined by DLS. […] To determine the kinetics of fluorescence change, each background-subtracted image in the time-lapse series was integrated in ImageJ and normalized to the integrated fluorescence of the first frame after treatment. […] The [Zn^2+]free for each cell was then calculated by Eqn 2:
[formula] […] The number of cells analyzed in each trial ranged from 54-163. […]

The mark [6] stands for this setting: HEK293 (non-cancer, p53-WT), FZ3-AM, complete media, confocal microscopy.

Structures are written as SMILES.

With `C/C(=N\NC(=S)N1CCC1)c1cnccn1` [Compound 1, (E)-N′-(1-(Pyrazin-2-yl)ethylidene)azetidine-1-carbothiohydrazide], the “Activity TOV112D” value in assay [1] is “++”. Same read-out and setting: to `C/C(=N\NC(=S)N1CCC1)c1cc(N(C)C)ccn1` [Compound 2, (E)-N′-(1-(4-(dimethylamino)pyridin-2-yl)ethylidene)azetidine-1-carbothiohydrazide] belongs “+++”; to `C/C(=N\Nc1nc2ccccc2s1)c1ccccn1` [Compound 3, (E)-2-(2-(1-(pyridin-2-yl)ethylidene)hydrazinyl)benzo[d]thiazole], “+++”.

`C/C(=N\Nc1nc2ccccc2o1)c1ccccn1` [Compound 4, (E)-2-(2-(1-(pyridin-2-yl)ethylidene)hydrazinyl)benzo[d]oxazole]: in assay [1], the “Activity TOV112D” value is on record as “+++”.

For `C/C(=N\Nc1nc2ccccc2[nH]1)c1ccccn1` [Compound 9, (E)-2-(2-(1-(pyridin-2-yl)ethylidene)hydrazinyl)-1H-benzo[d]imidazole], the “Activity TOV112D” value in assay [1] was “+++”. On the same count and under the same terms, with `C/C(=N\Nc1nc2ccccc2n1C)c1ccccn1` [Compound 10, (E)-1-methyl-2-(2-(1-(pyridin-2-yl)ethylidene)hydrazinyl)-1H-benzo[d]imidazole] the entry was “+++”.

`CC/C(=N\Nc1nc2ccccc2s1)c1ccccn1` [Compound 11, (E)-2-(2-(1-(pyridin-2-yl)propylidene)hydrazinyl)benzo[d]thiazole]: in assay [1], the “Activity TOV112D” value is reported as “+++”. Take `CC(C)/C(=N\Nc1nc2ccccc2s1)c1ccccn1` [Compound 12, (E)-2-(2-(2-methyl-1-(pyridin-2-yl)propylidene)hydrazinyl)benzo[d]thiazole]: the “Activity TOV112D” value in assay [1] is given as “+”. Same read-out and setting: with `C/C(=N\Nc1nc2ccccc2s1)c1ncc[nH]1` [Compound 13, (E)-2-(2-(1-(1H-imidazol-2-yl)ethylidene)hydrazinyl)benzo[d]thiazole] the entry was “+”; with `C/C(=N\Nc1nc2cc(F)ccc2s1)c1ccccn1` [Compound 14, (E)-5-fluoro-2-(2-(1-(pyridin-2-yl)ethylidene)hydrazinyl)benzo[d]thiazole], “+++”. Still for that read-out and setting: to `C/C(=N\Nc1nc2ccc(F)cc2s1)c1ccccn1` [Compound 15, (E)-6-fluoro-2-(2-(1-(pyridin-2-yl)ethylidene)hydrazinyl)benzo[d]thiazole] belongs “+++”.

With `C/C(=N\NC(=O)N1CCC1)c1ccccn1` [Compound A6], the “increase of intracellular [Zn2+]free” value in assay [2] (setting [6]) is listed as “did not”. Also, in assay [3], the “Zn2+ transport into liposomes” value is recorded as “shuttled Zn^2+ into the liposomes”. The compound further returned a Kd in assay [4] of 1100 nM. Consider `O=C(O)CN(CC(=O)O)CC(=O)O` [NTA], for which the “increase of intracellular [Zn2+]free” value in assay [2] (setting [6]) is recorded as “did not”. In assay [3], the “Zn2+ transport into liposomes” value was “did not”. In the case of `C/C(=N\NC(=S)N1CCC1)c1ccccn1` [ZMC1], the “increase of intracellular [Zn2+]free” value is on record as “increased” in assay [2] (setting [6]); “neither cell type showed an increase” in assay [2] (HEK293, ZMC1 alone (no ZnCl2), EBSS/H (−)Ca/Mg); “neither cell type showed an increase” in assay [5]. For the same compound, the “RZ-3 fluorescence after reversal of the [Zn2+]free gradient (Zn2+ export)” value in assay [3] (large excess of EDTA outside of the liposomes, then ZMC1 added) was “time dependent decrease”.
